Data reported in patent US10815241B2, “Optically active azabicyclo ring derivative” (priority 2018, dated 2020).
pIC50: −log10 of the molar value.

Columns and labels:
[1] = target: Menin-MLL binding (His-Menin1-615 / MLL1-172-FLAG) (Homo sapiens (Human), UniProt O00255); experiment: Test 1: inhibition of the Menin-MLL binding (HTRF); settings: for pIC50: Menin-MLL binding inhibition; for Menin-MLL binding inhibition activity: statement in words on the table of Test 1
Experimental: After the incubation, the signal was detected with RUBYstar (BMG LABTECH).

RS4; 11 cells = experiment: Test 2: inhibition of cell proliferation, RS4;11; format: cell-based; settings: for pIC50: Homo sapiens, RS4;11 cells, 7 days, PrestoBlue cell viability; for cell proliferation inhibition activity: statement in words, RS4;11 and MOLM-13 cells
Experimental: (§1) RS4; 11 cells were obtained from American Type Culture Collection (ATCC). […] MOLM-13 cells were separately obtained from DSMZ (Deutsche Sammlung von Mikroorganismen und Zellkulturen GmbH).
(§2) The cells were plated to a 96-well plate in 2000 cells/well, each test compound was added thereto to adjust the final concentration of DMSO to 0.1% of DMSO, and the cells were cultured for 7 days. After the cultivation, the cell viability was calculated with PrestoBlue™ Cell Viability Reagent (Invitrogen, A13261).

MOLM-13 cells = experiment: Test 2: inhibition of cell proliferation, MOLM-13; format: cell-based; settings: Homo sapiens, 7 days, PrestoBlue cell viability
Experimental: as §1, §2

MEIS1 = experiment: Test 3: inhibition of mRNA transcription, MEIS1 in MV4;11 cells; format: cell-based; settings: for mRNA at 1 μM (% control) MEIS1: MV4;11 cells, 20 to 24 hours, relative to GAPDH; for mRNA transcription inhibition activity: statement in words, MEIS1 and HOXA9, MV4;11 cells
Source text: (§3) MV4; 11 cells were obtained from American Type Culture Collection (ATCC). […] The expression level of each obtained gene (MEIS1 and HOXA9) was fitted with the expression level of mRNA of GAPDH.

HOXA9 = experiment: Test 3: inhibition of mRNA transcription, HOXA9 in MV4;11 cells; format: cell-based; settings: 20 to 24 hours, relative to GAPDH
Source text: as §3

[2] = target: hERG (human Ether-a-go-go Related Gene) (Homo sapiens (Human), UniProt Q12809); experiment: Test 4: hERG inhibition (QPatch HT, CHO cells stably expressing hERG); settings: for hERG/RS4; 11: hERG IC50 divided by RS4;11 proliferation IC50
Chain of hERG (human Ether-a-go-go Related Gene) (Q12809 whole entry): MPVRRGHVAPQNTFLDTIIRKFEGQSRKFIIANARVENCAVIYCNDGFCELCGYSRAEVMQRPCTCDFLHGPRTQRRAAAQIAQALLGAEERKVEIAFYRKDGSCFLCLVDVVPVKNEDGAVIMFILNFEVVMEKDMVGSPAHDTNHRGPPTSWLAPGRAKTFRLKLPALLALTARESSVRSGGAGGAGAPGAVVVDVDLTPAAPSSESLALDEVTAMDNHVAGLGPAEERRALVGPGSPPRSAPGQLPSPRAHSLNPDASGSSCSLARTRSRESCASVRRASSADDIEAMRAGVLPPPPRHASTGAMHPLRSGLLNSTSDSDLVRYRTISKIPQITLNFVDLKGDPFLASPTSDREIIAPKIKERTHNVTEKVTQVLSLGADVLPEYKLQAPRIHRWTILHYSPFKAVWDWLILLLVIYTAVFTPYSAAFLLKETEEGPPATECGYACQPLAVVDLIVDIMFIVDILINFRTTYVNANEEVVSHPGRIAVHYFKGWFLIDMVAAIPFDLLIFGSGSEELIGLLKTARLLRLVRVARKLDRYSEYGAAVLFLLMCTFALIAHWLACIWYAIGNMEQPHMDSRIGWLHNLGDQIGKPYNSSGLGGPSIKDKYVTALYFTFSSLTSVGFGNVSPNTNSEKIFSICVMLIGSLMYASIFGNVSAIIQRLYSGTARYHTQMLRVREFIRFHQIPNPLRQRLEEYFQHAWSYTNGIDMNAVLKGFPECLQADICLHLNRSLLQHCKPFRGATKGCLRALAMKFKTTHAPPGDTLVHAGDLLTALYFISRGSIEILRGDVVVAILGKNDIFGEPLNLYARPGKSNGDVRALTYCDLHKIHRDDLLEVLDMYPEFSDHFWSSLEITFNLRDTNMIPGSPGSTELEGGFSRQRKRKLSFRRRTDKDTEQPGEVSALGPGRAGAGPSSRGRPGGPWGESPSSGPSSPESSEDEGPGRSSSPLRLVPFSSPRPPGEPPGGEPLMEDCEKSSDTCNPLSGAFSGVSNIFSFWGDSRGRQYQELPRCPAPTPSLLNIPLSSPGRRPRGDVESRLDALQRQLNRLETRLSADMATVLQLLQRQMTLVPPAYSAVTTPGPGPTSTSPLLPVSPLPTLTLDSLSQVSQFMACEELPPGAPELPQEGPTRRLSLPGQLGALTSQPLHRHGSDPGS

Chain of Menin-MLL binding (His-Menin1-615 / MLL1-172-FLAG) (O00255 other isoform, or with tags, fused parts or gaps): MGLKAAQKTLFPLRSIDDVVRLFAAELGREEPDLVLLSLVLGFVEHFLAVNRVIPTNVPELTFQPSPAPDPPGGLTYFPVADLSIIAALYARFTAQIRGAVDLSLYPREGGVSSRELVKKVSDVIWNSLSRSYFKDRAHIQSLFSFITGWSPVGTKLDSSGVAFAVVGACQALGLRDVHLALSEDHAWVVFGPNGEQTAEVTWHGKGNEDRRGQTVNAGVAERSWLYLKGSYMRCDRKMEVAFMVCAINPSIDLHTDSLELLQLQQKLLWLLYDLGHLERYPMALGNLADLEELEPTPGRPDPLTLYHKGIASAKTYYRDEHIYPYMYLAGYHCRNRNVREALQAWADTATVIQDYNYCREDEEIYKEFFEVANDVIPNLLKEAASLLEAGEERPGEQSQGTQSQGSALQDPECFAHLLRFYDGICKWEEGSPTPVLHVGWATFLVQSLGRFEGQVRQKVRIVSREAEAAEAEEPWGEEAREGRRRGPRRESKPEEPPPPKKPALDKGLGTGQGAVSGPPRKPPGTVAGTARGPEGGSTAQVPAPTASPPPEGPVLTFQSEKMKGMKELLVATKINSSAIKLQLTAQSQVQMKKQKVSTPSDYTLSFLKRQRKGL

SMILES | pIC50 [1] | Menin-MLL binding inhibition activity [1] | pIC50 (RS4; 11 cells) | cell proliferation inhibition activity (RS4; 11 cells) | pIC50 (MOLM-13 cells) | mRNA at 1 μM (% control) MEIS1 (MEIS1) [% control] | mRNA transcription inhibition activity (MEIS1) | mRNA at 1 μM (% control) HOXA9 (HOXA9) [% control] | pIC50 [2] | gap between RS4; 11 proliferation IC50 and hERG current IC50 [2] | hERG/RS4; 11 [2]
CC(C)N(C(=O)c1cc(F)ccc1Oc1cncnc1N1CC2(CCN(C(=O)[C@H]3N[C@H]4CC[C@@H]3C[C@@H]4CC3CC3)CC2)C1)C(C)C [Example 1, 2-[(4-{7-[(1S,3S,4R,6S)-6-(Cyclopropylmethyl)-2-azabicyclo[2.2.2]octane-3-carbonyl]-2,7-diazaspiro[3.5]nonan-2-yl}pyrimidin-5-yl)oxy]-5-fluoro-N,N-di(propan-2-yl)benzamide] | 8.28 | potent | > 8.00 | potent | 7.70 | 11.8 | showed the mRNA transcription inhibition activity | 40.2 | 5.40 | more than 100 fold | >400
CC(C)N(C(=O)c1cc(F)ccc1Oc1cncnc1N1CC2(CCN(C(=O)[C@H]3N[C@H]4CC[C@@H]3C[C@H]4CC3CC3)CC2)C1)C(C)C [Example 4, 2-[(4-{7-[(1S,3S,4R,6R)-6-(cyclopropylmethyl)-2-azabicyclo[2.2.2]octane-3-carbonyl]-2,7-diazaspiro[3.5]nonan-2-yl}pyrimidin-5-yl)oxy]-5-fluoro-N,N-di(propan-2-yl)benzamide] | 8.15 | potent | 7.40 | potent | 7.15 | 18.0 | showed the mRNA transcription inhibition activity | 43.7 | 5.24 | more than 100 fold | 145
CC(C)N(C(=O)c1cc(F)ccc1Oc1cncnc1N1CC2(CN(C(=O)[C@H]3N[C@H]4CC[C@@H]3C[C@@H]4CC3CC3)C2)C1)C(C)C [Example 3, 2-[(4-{6-[(1S,3S,4R,6S)-6-(cyclopropylmethyl)-2-azabicyclo[2.2.2]octane-3-carbonyl]-2,6-diazaspiro[3.3]heptan-2-yl}pyrimidin-5-yl)oxy]-5-fluoro-N,N-di(propan-2-yl)benzamide] | > 8.52 | particularly potent | 7.52 | potent | 8.00 | 11.9 | showed the mRNA transcription inhibition activity | 39.6 | 5.21 | more than 100 fold | 620
